{
  "source": "paper PMC8607422",
  "about": "“Development of a novel TLR8 agonist for cancer immunotherapy” (Molecular Biomedicine, 2020)",
  "key": {"[1]": {"tested_on": "HL-60 human acute promyelocytic leukemia (AML) cells", "test": "Human HL-60 AML mouse xenograft model", "assay_type": "in vivo", "details": "HL-60 AML xenograft, NOD/SCID mice, 1.3 mg/kg sc once a week", "protocol": "All the animal experiments were conducted following Association for Assessment and Accreditation of Laboratory Animal Care (AAALAC)‘s guideline. The animal protocols were approved by the Institutional Animal Care and Use Committee (IACUC). Cell lines were purchased from credible vendors including ATCC. After tumor cell inoculation, the animals were checked daily for morbidity and mortality. At the time of routine monitoring, the animals were checked for any effects of tumor growth and treatment on the animals’ well-being such as mobility, food and water consumption, body weight gain/loss, matting and any other abnormalities. Clinical observations were recorded. Tumor volumes were measured twice a week in two dimensions using a caliper and the volume was expressed in mm^3 using the formula: V = 0.5 a × b^2 where a and b are the long and short diameters of the tumor, respectively. The procedures of dosing as well as tumor and body weight measurement were conducted in a laminar flow cabinet.\nFor HL-60 experiment, HL-60 human acute promyelocytic leukemia (AML) cells were cultured in vitro in suspension in RPMI1640 medium supplemented with 10% fetal bovine serum and 1% penicillin/streptomycin at 37°C in an atmosphere of 5% CO2 in air. The tumor cells were routinely passaged twice per week. The cells growing in the exponential growth phase were harvested and counted for tumor inoculation. […]"}, "[2]": {"tested_on": "serum cytokines", "test": "In vivo cytokine induction in monkeys", "set-up": "species or system cynomolgus monkeys", "details": "monkey, 1 mg/kg sc single dose", "protocol": "Cynomolgus monkeys were purchased from Guangxi Xiongsen Primate Laboratory Animals Co., Ltd. (Guangxi, China) and three 3–4 years old male monkeys were used in each group. […] A single dose of motolimod was sc administered at 1 mg/kg. Blood samples were collected pre-dose, 6 and 24 h post-dose. Levels of cytokines including IFN-γ, IL-10, IL-1β, IL-6, IL-8, MIP-1α, MIP-1β, G-CSF, IL-12p40, IL-12p70 and TNF-α were measured using MSD ECL cytokine assay kit following the manufacturer’s protocol."}},
  "data": [
    {"molecule": "CCCN(CCC)C(=O)C1=Cc2ccc(-c3ccc(C(=O)N4CCCC4)cc3)cc2N=C(N)C1", "note": "[Motolimod, motolimod]", "values": [
      {"measurement": "tumor growth inhibition (TGI) rate", "setting": "[1]", "value": 17, "unit": "%"},
      {"measurement": "serum G-CSF, Mean Values", "setting": "[2]; 0 h (pre-dose)", "value": 7.135, "unit": "pg/mL"},
      {"measurement": "serum IFN-γ, Mean Values", "setting": "[2]; 0 h (pre-dose)", "value": 1.017, "unit": "pg/mL"},
      {"measurement": "serum IL-1β, Mean Values", "setting": "[2]; 0 h (pre-dose)", "value": 0.000, "unit": "pg/mL"},
      {"measurement": "serum IL-6, Mean Values", "setting": "[2]; 0 h (pre-dose)", "value": 1.510, "unit": "pg/mL"},
      {"measurement": "serum IL-8, Mean Values", "setting": "[2]; 0 h (pre-dose)", "value": 0.000, "unit": "pg/mL"},
      {"measurement": "serum IL-10, Mean Values", "setting": "[2]; 0 h (pre-dose)", "value": 0.271, "unit": "pg/mL"},
      {"measurement": "serum IL-12p40, Mean Values", "setting": "[2]; 0 h (pre-dose)", "value": 131.413, "unit": "pg/mL"},
      {"measurement": "serum IL-12p70, Mean Values", "setting": "[2]; 0 h (pre-dose)", "value": 2.582, "unit": "pg/mL"},
      {"measurement": "serum MIP-1α, Mean Values", "setting": "[2]; 0 h (pre-dose)", "value": 71.636, "unit": "pg/mL"},
      {"measurement": "serum MIP-1β, Mean Values", "setting": "[2]; 0 h (pre-dose)", "value": 93.266, "unit": "pg/mL"},
      {"measurement": "serum G-CSF, Mean Values", "setting": "[2]; 6 h", "value": 345.154, "unit": "pg/mL"},
      {"measurement": "serum IFN-γ, Mean Values", "setting": "[2]; 6 h", "value": 0.500, "unit": "pg/mL"},
      {"measurement": "serum IL-1β, Mean Values", "setting": "[2]; 6 h", "value": 0.286, "unit": "pg/mL"},
      {"measurement": "serum IL-6, Mean Values", "setting": "[2]; 6 h", "value": 342.661, "unit": "pg/mL"},
      {"measurement": "serum IL-8, Mean Values", "setting": "[2]; 6 h", "value": 0.378, "unit": "pg/mL"},
      {"measurement": "serum IL-10, Mean Values", "setting": "[2]; 6 h", "value": 15.222, "unit": "pg/mL"},
      {"measurement": "serum IL-12p40, Mean Values", "setting": "[2]; 6 h", "value": 305.212, "unit": "pg/mL"},
      {"measurement": "serum IL-12p70, Mean Values", "setting": "[2]; 6 h", "value": 5.154, "unit": "pg/mL"},
      {"measurement": "serum MIP-1α, Mean Values", "setting": "[2]; 6 h", "value": 227.638, "unit": "pg/mL"},
      {"measurement": "serum MIP-1β, Mean Values", "setting": "[2]; 6 h", "value": 1655.094, "unit": "pg/mL"},
      {"measurement": "serum G-CSF, Mean Values", "setting": "[2]; 24 h", "value": 32.168, "unit": "pg/mL"},
      {"measurement": "serum IFN-γ, Mean Values", "setting": "[2]; 24 h", "value": 0.462, "unit": "pg/mL"},
      {"measurement": "serum IL-1β, Mean Values", "setting": "[2]; 24 h", "value": 0.099, "unit": "pg/mL"},
      {"measurement": "serum IL-6, Mean Values", "setting": "[2]; 24 h", "value": 12.185, "unit": "pg/mL"},
      {"measurement": "serum IL-8, Mean Values", "setting": "[2]; 24 h", "value": 0.119, "unit": "pg/mL"},
      {"measurement": "serum IL-10, Mean Values", "setting": "[2]; 24 h", "value": 1.347, "unit": "pg/mL"},
      {"measurement": "serum IL-12p40, Mean Values", "setting": "[2]; 24 h", "value": 118.409, "unit": "pg/mL"},
      {"measurement": "serum IL-12p70, Mean Values", "setting": "[2]; 24 h", "value": 3.305, "unit": "pg/mL"},
      {"measurement": "serum MIP-1α, Mean Values", "setting": "[2]; 24 h", "value": 87.417, "unit": "pg/mL"},
      {"measurement": "serum MIP-1β, Mean Values", "setting": "[2]; 24 h", "value": 221.881, "unit": "pg/mL"}
    ]}
  ]
}
